The subject of the assay is P. falciparum 3D7 growth, pLDH absorbance. The assay can be described thus: P. falciparum 3D7 growth inhibition, dose response, strain 3D7 (AID 2305).

SMILES strings stand for the structures.

What is called IC50 is the concentration needed to halve the response being measured. Low values mean higher potency, high ones lower potency. `CSc1ccc2ccccc2c1CCNCCCCNCCc1c(SC)ccc2ccccc12` came in with an IC50 of 410 nM. The same measure for `CN(C)CCCOc1ccc(CCNCc2cccc(Oc3ccc(Cl)cc3)c2)cc1`: 890 nM; for `COc1ccc(-c2nonc2NC(=O)c2ccc(OC(C)C)cc2)cc1OC`: 630 nM; for `CC(C)(C)CC(C)(C)c1ccc(O)c(CNC2CCCCC2)c1`: 60 nM. The same measure for `N#Cc1cnc(Nc2ccc(Oc3ccccc3)cc2)nc1Nc1cccc(S(N)(=O)=O)c1`: 550 nM; for `CC(C)Sc1nc2c(c(=O)n1Cc1ccco1)C1(CCCC1)Cc1ccccc1-2`: 1630 nM; for `c1ccc(-c2cc(NCCCn3ccnc3)nc(-c3cccnc3)n2)cc1`: 980 nM. For the molecule `CN(CCCNc1ccc(C(=O)Nc2ccc(C(F)(F)F)cc2)cc1[N+](=O)[O-])Cc1ccccc1`, the IC50 stood at 230 nM.

Molecule `O=C(N[C@H]1CCN(CCc2ccc(O[C@H]3CCNC3)c(Cl)c2)C1)c1ccc(Cl)c(Cl)c1` displayed an IC50 of 890 nM.

Consider `COC(=O)c1ccc2c(c1)nc(Nc1cccc(F)c1)n2CC(O)c1ccccn1` (stereo unspecified), for which the IC50 was found to be 730 nM. Regarding `N=c1c2c(n(Cc3ccc(Cl)cc3Cl)c3c1CCC3)CCCC2`, the IC50 amounted to 350 nM. Molecule `CCC(C)C(COC(=O)c1cc(OC)c(OC)c(OC)c1)N(C)CCN(C)C(COC(=O)c1cc(OC)c(OC)c(OC)c1)C(C)CC` (stereo unspecified) returned an IC50 of 950 nM.

The molecule `C[C@H](NC(=O)c1c(CN2CCC(NC(=O)CC(C)(C)C)CC2)c(-c2cccs2)nc2ccccc12)C1CCCCC1` gave a half-inhibitory concentration (IC50) of 950 nM.

In turn, `CC(C)CNCc1cccc(-c2ccc(CN(C(=O)NC3CCCCC3)C3CCN(Cc4ccccc4)CC3)cc2)c1` gave an IC50 of 760 nM. This IC50 and that of the molecule before are within 1.5-fold of each other. The same measure for `NC1CCN(CCc2ccc(NS(=O)(=O)c3ccc(-c4ccccc4)cc3)cc2)CC1`: 1020 nM. In turn, `O=C(Nc1cccc(-c2ccc(CN3CCCC3)cc2)c1)c1ccc(F)cc1` had an IC50 of 1080 nM.

As to `Cc1cccc2[nH]c(C3CCN(CC4CCN(C(=O)/C=C/c5ccc(Cl)c(Cl)c5)CC4)CC3)nc12`, the IC50 was 480 nM. This IC50 is about 2.2-fold lower than that of the molecule before. `CCNc1cc(C(=O)N[C@@H](Cc2ccc(F)c(F)c2)[C@H](O)CNC2CCCCC2)cc(N2CCCCS2(=O)=O)c1` had an IC50 of 120 nM. The same measure for `Cc1nc(-c2cccc(Nc3nccc(NCC(O)c4cccc(F)c4)n3)c2)cs1` (stereo unspecified): 700 nM. For the molecule `Cc1[nH]c(C)c(-c2ccc(-c3ccc(OCC(F)(F)F)cc3)nc2)c(=O)c1Cl`, the concentration for half-maximal inhibition (IC50) came to 390 nM. This IC50 is about 1.8-fold lower than that of the molecule before. The same measure for `NC(=NCc1ccc(O)cc1)Nc1nc(-c2ccc(OCCCn3ccnc3)cc2)cs1`: 750 nM; for `Cc1cc(C)cc(OCC(O)CN(CCN2CCOCC2)C(=O)Nc2ccc(Br)cc2)c1` (stereo unspecified): 1030 nM; for `O=C(Nc1ccc(-c2cccc(-c3nc4ccc(C(F)(F)F)cc4[nH]3)c2)cc1)c1ccc(=O)[nH]n1`: 1070 nM. For `CCN(CC)CCN1C(=O)c2oc3ccc(Cl)cc3c(=O)c2C1c1ccc(SC)cc1` (stereo unspecified), the IC50 was determined as 1060 nM.

For `COc1ccc(NC(=O)[C@H](Cc2ccccc2)Nc2cc(C)nc(NCCc3ccccc3)n2)cc1`, the IC50 was 1240 nM. The IC50 values of the last two molecules are within 1.5-fold of each other. The same measure for `Cc1ccnc(-n2c(C)cc(C=C3SC(=Nc4ccccc4)N(Cc4ccco4)C3=O)c2C)c1`: 240 nM; for `Cc1cccc2[nH]c(-c3ccc(-c4ccc(NC(=O)NCc5ccccc5)cc4)s3)nc12`: 770 nM; for `CC(C)(C(=O)Nc1ccc(C2CCC(NCC3CC3)CC2)c(Cl)c1)c1ccc(C(F)(F)F)cc1` (stereo unspecified): 960 nM. The same measure for `Cc1cc(Nc2ccc(Oc3ccc(Cl)cc3)cc2)nc(N)n1`: 620 nM.

`O=C(/C=C/c1cccc(C(F)(F)F)c1)NCCCCCN1CCC(c2c[nH]c3ccccc23)CC1`: the IC50 amounted to 840 nM. Regarding `O=S(=O)(NC1CCN(c2ccnc3cc(Cl)ccc23)C1)c1ccc(C(F)(F)F)cc1` (stereo unspecified), the IC50 came out at 300 nM. `CCN(CC(C)O)C(=O)c1ccc(-c2cccc(-c3nc4c(C)cccc4[nH]3)c2)cc1` (stereo unspecified) yielded an IC50 of 640 nM. The same measure for `Cn1c(Cc2ccccc2)nnc1Sc1ccc(C#N)c([N+](=O)[O-])c1`: 910 nM; for `O=C(Nc1ccc(-c2cccc(-c3nc4ccc(C(F)(F)F)cc4[nH]3)c2)cc1)Nc1ccc(Cl)c(Cl)c1`: 750 nM; for `COc1ccccc1C1CCN(C2CCC(NC(=O)c3cc4cc(C(C)C)ccc4[nH]3)CC2)CC1` (stereo unspecified): 850 nM. The same measure for `N#Cc1cccc(NC(=O)Nc2cccc(-c3cccc(-c4nc5ccccc5[nH]4)c3)c2)c1`: 90 nM; for `CN(C)CCN(C)Cc1cccc(-c2cccc(NC(=O)c3cccc(C#N)c3)c2)c1`: 870 nM; for `Cc1cc(NCC2CCN(CC3CCCCC3)C2)nc(Nc2ccc(Cl)cc2)n1` (stereo unspecified): 740 nM.

In turn, `Cc1ccc(-n2c(=O)c3c(n4c(SC(C)C)nnc24)-c2ccccc2CC32CCCCC2)cc1` showed an IC50 of 950 nM. The same measure for `CSc1ccc(NC(=O)Nc2cc(C)nc3ccccc23)cc1Br`: 780 nM; for `CCCCC(O)c1cc(O)c2c(c1)OC(C)(C)CC2C1=CCN(Cc2ccc3ccccc3c2)CC1` (stereo unspecified): 970 nM.

The molecule `COc1ccc(CNCc2ccc(-c3ccc(-c4nc5c(C)cccc5[nH]4)s3)cc2)cc1` displayed an IC50 of 180 nM. Take `CNCCNCc1ccc(-c2ccc(-c3nc4ccc(C(F)(F)F)cc4[nH]3)cc2)cc1`: the IC50 amounted to 310 nM.

In the case of `O=C(Nc1ccc(Oc2ccccc2)cc1)N[C@H]1CCN(Cc2ccc(OCCCN3CCCCC3)cc2)C1`, the IC50 was 180 nM. The same measure for `CN1CCN(CCCN(Cc2csc(-c3ccc(CNCc4ccccc4)cc3)n2)C(=O)Nc2ccc3ccccc3c2)CC1`: 1100 nM; for `Clc1cccc(C=NNc2nc(Nc3ccccc3)nc(Nc3ccccc3)n2)c1`: 840 nM; for `COc1ccc(NC(=O)Nc2cc(C)nc3cccnc23)cc1Cn1ccnc1`: 740 nM. The same measure for `CC(=O)c1ccc(-c2ccc(C(=O)NCCCCN3CCC(c4ccc5c(c4O)CCCC5)CC3)cc2)cc1`: 760 nM. `COc1ccc2nccc([C@@H](O)CN3CCC(NC(=O)c4ccc(Cl)c([N+](=O)[O-])c4)CC3)c2c1`: the IC50 stood at 950 nM. The IC50 values of the last two molecules are within 1.5-fold of each other. In the case of `CN1CC=C(c2c[nH]c3ccc(OC(=O)c4ccccc4)cc23)C1`, the IC50 was 800 nM. The IC50 values of the last two molecules are within 1.5-fold of each other.

In turn, `FC(F)(F)c1ccc2nc(-c3cccc(-c4cccc(CNCc5cnn(-c6ccccc6)n5)c4)c3)[nH]c2c1` registered a 50% inhibitory concentration (IC50) of 550 nM. The molecule `CCc1c(CCNCCCCCCNCCc2ccc(OC)cc2)ccc(OC)c1OC` displayed a 50% inhibitory concentration (IC50) of 870 nM.

In the case of `COc1cccc(C2=CC(C)(C)Oc3cc(OCCN(C)C)ccc32)c1`, the IC50 came out at 790 nM.

`CN1CCC(Oc2ccc(CN3CC[C@H](NC(=O)c4cc(F)cc(F)c4)C3)c3ccccc23)C1` (stereo partly specified): the IC50 was 840 nM.

Consider `O=C(Nc1ccc(-c2nc3cc4ccccc4cc3[nH]2)cc1)c1cccc(Br)c1`, for which the concentration for half-maximal inhibition (IC50) came out at 360 nM.

Take `CC(C)Oc1ccc2ccccc2c1CNCCCCCCNCc1c(OC(C)C)ccc2ccccc12`: the IC50 turned out to be 610 nM. With `O=C(NC1CCN(Cc2ccccc2)CC1)c1cccc(-c2cc3cc(Cl)c(Cl)cc3[nH]2)c1`, the IC50 stood at 720 nM.

In turn, `CCOc1ccc(C(=O)Nc2ccc(-c3nc4ccccc4[nH]3)cc2)cc1[N+](=O)[O-]` gave a concentration for half-maximal inhibition (IC50) of 590 nM.

`O=C(/C=C/c1ccc(Cl)c(Cl)c1)NC1[C@@H]2CC[C@H]1CC(CN1CCC(c3c[nH]c4ccccc34)CC1)C2` (stereo partly specified): the concentration for half-maximal inhibition (IC50) is 200 nM. The same measure for `Cc1cc(Br)cnc1CCCCNc1cc(=O)c2ccccc2[nH]1`: 1160 nM; for `CCCC[C@@H](C(=O)NCCc1ccc(Cl)cc1)N1C(=O)CCC1C(=O)Nc1ccc(Cl)c(Cl)c1` (stereo partly specified): 870 nM.

The values are drawn from PubChem BioAssay AID2305 (GlaxoSmithKline (GSK), 2010).
